Test system: CHD
Test: Meta-analysis of CARE and WOSCOPS combined, synergy index, CHD endpoint
Assay type: in vivo, human
Source text: Tables 4-5 provide meta-analyses of CARE and WOSCOPS combined (2nd section of each table) for two endpoints (CHD and CVD) and three genetic models (dominant, recessive, and additive), as well as logistic regression analyses of CARE (3rd section of each table) and WOSCOPS (4th section of each table) individually.
Tables 12 and 17 provide results of meta-analysis of the CARE and WOSCOPS sample sets combined by direct genotyping and by imputing genotypes.
“P” indicates the p-value, and “P(R)” (or “P.R.”) indicates the p-value random effect. Both of these are p-values corresponding to a statistical test of whether the combined synergy index is equal to one but use different assumptions to derive the p-value. “P” is calculated using a fixed effects model, and “P(R)” is calculated using a random effects model.
“OR” indicates the odds ratio (synergy index) calculated from a fixed effects model, and “OR(R)” (or “OR.R.”) indicates the odds ratio (synergy index) calculated from a random effects model.

[1] = rs10105871 allele C DOMINANT Imputed
[2] = rs10116807 allele A GENOTYPIC Imputed
[3] = rs11178575 allele C GENOTYPIC Imputed
[4] = rs11178575 allele C RECESSIVE Imputed
[5] = rs11178577 allele T GENOTYPIC Imputed
[6] = rs11178577 allele T RECESSIVE Imputed
[7] = rs11178583 allele A DOMINANT Imputed
[8] = rs11178589 allele T DOMINANT Imputed
[9] = rs11178594 allele C DOMINANT Imputed
[10] = rs11178602 allele T DOMINANT Imputed
[11] = rs11178648 allele T DOMINANT Imputed
[12] = rs11198877 allele T DOMINANT Imputed
[13] = rs11198942 allele T DOMINANT Imputed
[14] = rs11221075 allele A ADDITIVE Imputed
[15] = rs11242020 allele T DOMINANT Imputed
[16] = rs11242021 allele T DOMINANT Imputed
[17] = rs11242022 allele T DOMINANT Imputed
[18] = rs11242023 allele T DOMINANT Imputed
[19] = rs11576627 allele T ADDITIVE Imputed
[20] = rs11576627 allele T DOMINANT Imputed
[21] = rs11602189 allele A DOMINANT Imputed
[22] = rs11605163 allele A DOMINANT Imputed
[23] = rs11615214 allele G ADDITIVE Imputed
[24] = rs11615214 allele G GENOTYPIC Imputed
[25] = rs11642394 allele C DOMINANT Imputed
[26] = rs11644943 allele A ADDITIVE Imputed
[27] = rs11656608 allele T DOMINANT Imputed
[28] = rs11661309 allele A ADDITIVE Imputed
[29] = rs11661309 allele A DOMINANT Imputed
[30] = rs11666131 allele A ADDITIVE Imputed
[31] = rs11743355 allele C ADDITIVE Imputed
[32] = rs11743355 allele C DOMINANT Imputed
[33] = rs11746806 allele T ADDITIVE Imputed
[34] = rs11746806 allele T DOMINANT Imputed
[35] = rs11746959 allele T ADDITIVE Imputed
[36] = rs11746959 allele T DOMINANT Imputed
[37] = rs11749272 allele T DOMINANT Imputed
[38] = rs11901899 allele A DOMINANT Imputed
[39] = rs11926319 allele G ADDITIVE Imputed
[40] = rs11926319 allele G DOMINANT Imputed
[41] = rs11956952 allele C DOMINANT Imputed
[42] = rs12025826 allele G DOMINANT Imputed
[43] = rs12153185 allele T DOMINANT Imputed
[44] = rs12182651 allele T ADDITIVE Imputed
[45] = rs12182651 allele T DOMINANT Imputed
[46] = rs12193568 allele G DOMINANT Imputed
[47] = rs12264914 allele C DOMINANT Imputed
[48] = rs12307767 allele C DOMINANT Imputed
[49] = rs12407412 allele C ADDITIVE Imputed
[50] = rs12407412 allele C DOMINANT Imputed
[51] = rs12420184 allele G DOMINANT Imputed
[52] = rs12422750 allele A DOMINANT Imputed
[53] = rs12446951 allele A ADDITIVE Imputed
[54] = rs12446951 allele A DOMINANT Imputed
[55] = rs12457400 allele G DOMINANT Imputed
[56] = rs12521291 allele G ADDITIVE Imputed
[57] = rs12526849 allele T ADDITIVE Imputed
[58] = rs12526849 allele T GENOTYPIC Imputed
[59] = rs12543110 allele G DOMINANT Imputed
[60] = rs12678600 allele A DOMINANT Imputed
[61] = rs12719415 allele T DOMINANT Imputed
[62] = rs12831292 allele G DOMINANT Imputed

CC[C@H](C)C(=O)O[C@H]1C[C@H](O)C=C2C=C[C@H](C)[C@H](CC[C@@H](O)C[C@@H](O)CC(=O)O)[C@H]21 [Pravastatin, pravastatin]
OR(R) (rs10067895 allele A DOMINANT Imputed): 0.5759
Meta-analysis OR (rs10088505 allele A vs G (ref)): 1.61
Meta-analysis OR (rs10088524, allele A1 G (non-ref), A2 A (ref), endpoint/model not given): 1.57
Meta-analysis OR (rs10103297, allele A1 A (non-ref), A2 G (ref), endpoint/model not given): 2.03
OR [1]: 1.6092
OR(R) [1]: 1.6092
OR [2]: 3.0952
OR(R) [2]: 3.0952
Meta-analysis OR (rs10120126 allele G vs A (ref)): 0.51
Meta-analysis OR (rs10189905 allele C vs A (ref)): 0.52
Meta-analysis OR (rs10500736 allele G vs A (ref)): 0.57
Meta-analysis OR (rs10517923 allele A vs G (ref)): 1.61
Meta-analysis OR (rs10814422 allele G vs A (ref)): 0.57
Meta-analysis OR (rs10849442 allele A vs G (ref)): 0.57
Meta-analysis OR (rs10875941, allele A1 G (non-ref), A2 A (ref), endpoint/model not given): 0.63
Meta-analysis OR (rs10973013 allele A vs G (ref)): 0.55
Meta-analysis OR (rs11076320 allele C vs A (ref)): 0.65
Meta-analysis OR (rs11082492 allele A vs C (ref)): 1.55
OR [3]: 1.8735
OR(R) [3]: 1.8735
OR [4]: 1.8848
OR(R) [4]: 1.8848
OR [5]: 1.87
OR(R) [5]: 1.87
OR [6]: 1.8884
OR(R) [6]: 1.8884
OR [7]: 0.5918
OR(R) [7]: 0.5918
OR [8]: 0.6108
OR(R) [8]: 0.6108
OR [9]: 0.5951
OR(R) [9]: 0.5951
OR [10]: 0.5942
OR(R) [10]: 0.5942
OR [11]: 0.576
OR(R) [11]: 0.576
OR [12]: 1.6068
OR(R) [12]: 1.5927
OR [13]: 1.6276
OR(R) [13]: 1.6227
OR [14]: 0.6561
OR(R) [14]: 0.6561
OR [15]: 0.5675
OR(R) [15]: 0.5675
OR [16]: 0.5753
OR(R) [16]: 0.5753
OR [17]: 0.5805
OR(R) [17]: 0.5805
OR [18]: 0.5807
OR(R) [18]: 0.5807
OR [19]: 1.6268
OR(R) [19]: 1.6268
OR [20]: 1.7055
OR(R) [20]: 1.7055
OR [21]: 0.6007
OR(R) [21]: 0.6007
OR [22]: 2.1075
OR(R) [22]: 2.1075
OR [23]: 0.6853
OR(R) [23]: 0.6853
OR [24]: 0.4648
OR(R) [24]: 0.4738
OR [25]: 1.4572
OR(R) [25]: 1.4572
OR [26]: 1.4247
OR(R) [26]: 1.4247
OR [27]: 0.6695
OR(R) [27]: 0.6695
OR [28]: 0.6163
OR(R) [28]: 0.6163
OR [29]: 0.5852
OR(R) [29]: 0.5852
OR [30]: 1.5364
OR(R) [30]: 1.5364
OR [31]: 0.1796
OR(R) [31]: 0.1796
OR [32]: 0.1817
OR(R) [32]: 0.1817
OR [33]: 0.2206
OR(R) [33]: 0.2206
OR [34]: 0.2253
OR(R) [34]: 0.2253
OR [35]: 0.1976
OR(R) [35]: 0.1976
OR [36]: 0.2007
OR(R) [36]: 0.2007
OR [37]: 0.5734
OR(R) [37]: 0.5734
OR [38]: 1.5824
OR(R) [38]: 1.5824
Meta-analysis OR (rs11925875 allele A vs G (ref)): 0.66
OR [39]: 0.4343
OR(R) [39]: 0.4343
OR [40]: 0.4237
OR(R) [40]: 0.4237
OR [41]: 0.6564
OR(R) [41]: 0.6564
OR [42]: 1.5794
OR(R) [42]: 1.5794
OR [43]: 0.5759
OR(R) [43]: 0.5759
OR [44]: 2.1926
OR(R) [44]: 2.1926
OR [45]: 2.4795
OR(R) [45]: 2.4795
OR [46]: 1.7403
OR(R) [46]: 1.8042
OR [47]: 0.6442
OR(R) [47]: 0.6442
OR [48]: 0.6667
OR(R) [48]: 0.6667
OR [49]: 1.6268
OR(R) [49]: 1.6268
OR [50]: 1.7055
OR(R) [50]: 1.7055
OR [51]: 0.5645
OR(R) [51]: 0.5645
OR [52]: 0.6919
OR(R) [52]: 0.6919
OR [53]: 2.3413
OR(R) [53]: 2.3413
OR [54]: 2.3135
OR(R) [54]: 2.3135
OR [55]: 0.5884
OR(R) [55]: 0.5884
OR [56]: 0.6857
OR(R) [56]: 0.6857
OR [57]: 1.4208
OR(R) [57]: 1.4208
OR [58]: 2.0445
OR(R) [58]: 2.0445
OR [59]: 1.6401
OR(R) [59]: 1.6401
Meta-analysis OR (rs12556591 allele G vs A (ref)): 0.59
Meta-analysis OR (rs12657484, allele A1 G (non-ref), A2 A (ref), endpoint/model not given): 1.49
OR [60]: 0.6104
OR(R) [60]: 0.6104
OR [61]: 0.5662
OR(R) [61]: 0.5662
OR [62]: 0.5982
OR(R) [62]: 0.5982
Meta-analysis OR (rs13279522 allele G vs A (ref)): 0.62
Meta-analysis OR (rs13314266 allele G vs A (ref)): 0.51
Meta-analysis OR (rs13318232 allele G vs A (ref)): 0.52
Meta-analysis OR (rs16861467, allele A1 G (non-ref), A2 A (ref), endpoint/model not given): 0.49
Meta-analysis OR (rs17076974 allele A vs G (ref)): 1.40
Meta-analysis OR (rs17546598 allele A vs G (ref)): 1.71
Meta-analysis OR (rs17706237 allele G vs A (ref)): 1.69
Meta-analysis OR (rs17716275, allele A1 A (non-ref), A2 G (ref), endpoint/model not given): 2.03
Meta-analysis OR (rs72746987 allele A vs G (ref)): 0.40

Reference: patent US10563263B2, “Genetic polymorphisms associated with statin response and cardiovascular diseases, methods of detection and uses thereof” (CELERA CORPORATION, priority 2010, dated 2020)
